Consider two compounds from article PMC12268261, “The aldehyde (ALD) locus controls C6-aldehyde production in kiwifruit and affects consumer perception of fruit aroma” (Plant Physiology, 2025).

The target in one assay is T1, AcLOX4a-D1 (Actinidia chinensis, UniProt A0A2R6P8A4).
T1 construct: gene CEY00_Acc32486; N-terminal HIS6-MBP fusion (pMAL-c6T), tag kept; E. coli BL21 (DE3) Codon Plus RIL
Nature of the assay: spectrophotometric, product formation at […] nm. In kind it is biochemical. The conditions noted are these: air-saturated 30 mM Tris-Cl, pH 7.5, read-out: Km-app /.

A further assay deals with T2, AcLOX4c-D1 (Actinidia chinensis, UniProt Z9ABF8LHO4).
T2 construct: N-terminal HIS6-MBP fusion (pMAL-c6T), tag kept; E. coli BL21 (DE3) Codon Plus RIL
T2 sequence (Z9ABF8LHO4 57-898): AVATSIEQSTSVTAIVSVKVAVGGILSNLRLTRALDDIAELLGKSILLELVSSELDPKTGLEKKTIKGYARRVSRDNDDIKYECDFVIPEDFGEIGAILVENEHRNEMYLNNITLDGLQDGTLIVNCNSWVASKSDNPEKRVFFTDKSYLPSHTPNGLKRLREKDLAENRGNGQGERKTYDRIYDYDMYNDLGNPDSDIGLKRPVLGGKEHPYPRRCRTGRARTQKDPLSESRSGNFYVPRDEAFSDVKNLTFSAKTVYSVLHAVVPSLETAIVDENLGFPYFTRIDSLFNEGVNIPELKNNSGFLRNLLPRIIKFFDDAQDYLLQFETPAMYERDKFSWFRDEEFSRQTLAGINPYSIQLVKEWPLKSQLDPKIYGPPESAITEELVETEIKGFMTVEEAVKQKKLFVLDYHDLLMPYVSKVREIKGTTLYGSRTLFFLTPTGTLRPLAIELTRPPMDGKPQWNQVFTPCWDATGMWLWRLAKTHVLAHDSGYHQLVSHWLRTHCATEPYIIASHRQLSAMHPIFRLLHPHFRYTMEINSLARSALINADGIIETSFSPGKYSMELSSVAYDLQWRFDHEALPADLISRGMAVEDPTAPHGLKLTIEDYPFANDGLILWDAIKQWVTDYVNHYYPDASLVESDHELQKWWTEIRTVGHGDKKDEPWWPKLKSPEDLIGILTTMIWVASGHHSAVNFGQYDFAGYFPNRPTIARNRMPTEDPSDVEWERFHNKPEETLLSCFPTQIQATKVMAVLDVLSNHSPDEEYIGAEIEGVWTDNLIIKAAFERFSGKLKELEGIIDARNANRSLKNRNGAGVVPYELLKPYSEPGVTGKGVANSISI
Nature of the assay: spectrophotometric, product formation at […] nm. In kind it is biochemical. As to conditions: air-saturated 30 mM Tris-Cl, pH 7.5; substrate inhibition at >50 µM; read-out: Km-app /.

Like-named read-outs stand apart in the source and are kept apart here.

T1 sequence (A0A2R6P8A4 entry or part of it): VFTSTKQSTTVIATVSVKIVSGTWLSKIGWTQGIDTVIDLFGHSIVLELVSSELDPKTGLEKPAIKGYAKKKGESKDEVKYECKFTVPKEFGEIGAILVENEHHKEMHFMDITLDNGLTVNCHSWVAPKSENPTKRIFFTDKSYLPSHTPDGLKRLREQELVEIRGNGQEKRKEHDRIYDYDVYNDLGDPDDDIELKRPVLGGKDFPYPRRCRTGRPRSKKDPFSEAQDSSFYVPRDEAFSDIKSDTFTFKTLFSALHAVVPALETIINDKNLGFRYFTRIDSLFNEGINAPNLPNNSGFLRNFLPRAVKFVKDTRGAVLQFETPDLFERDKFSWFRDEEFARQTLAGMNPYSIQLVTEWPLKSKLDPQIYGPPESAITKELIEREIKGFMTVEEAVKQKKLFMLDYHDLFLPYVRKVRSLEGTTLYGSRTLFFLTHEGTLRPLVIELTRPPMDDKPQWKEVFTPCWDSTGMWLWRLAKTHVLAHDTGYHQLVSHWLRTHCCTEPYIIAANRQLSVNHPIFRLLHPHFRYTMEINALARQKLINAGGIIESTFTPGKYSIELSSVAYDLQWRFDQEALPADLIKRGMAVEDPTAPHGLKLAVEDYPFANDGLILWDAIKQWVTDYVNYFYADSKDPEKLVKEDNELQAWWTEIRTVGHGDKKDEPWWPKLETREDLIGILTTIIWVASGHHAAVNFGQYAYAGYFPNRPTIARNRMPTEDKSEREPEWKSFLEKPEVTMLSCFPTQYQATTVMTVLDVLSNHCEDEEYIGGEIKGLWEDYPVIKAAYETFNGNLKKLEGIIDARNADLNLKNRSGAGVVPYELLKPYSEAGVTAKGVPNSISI

`CC/C=C\C/C=C\C/C=C\CCCCCCCC(=O)O` [α-linolenic acid]: the Km at AcLOX4a-D1 worked out at 133 µM. On to `CCCCC/C=C\C/C=C\CCCCCCCC(=O)O` [linoleic acid], for which the Km on AcLOX4c-D1 worked out at 59.2 µM; at AcLOX4a-D1 (substrate inhibition at >125 µM), 193 µM.
